# Measurements from patent US20180353457A1, “ABIETANE DITERPENOID 7-ACETOXYROYLEANONES FOR USE IN CANCER TREATMENT” (University of South Carolina, priority 2017, published 2018).
# Tested on: NCI-60 panel of cancer cell lines
# Assay: NCI-60 one dose screen, whole panel
# Format: cell-based
# Settings: 10 μM, 48 hours
# Protocol: One dose and five dose cytotoxicity screening was performed by the NCI-60 screening program of the National Institutes of Health (NIH), which is known in the art and available from the NIH. The NCI-60 panel is a collection of cancer cell lines, from various diverse tumors, which was developed in the 1980s by the National Cancer Institute to aid screening efforts for cytotoxic or cytostatic compounds.
# In these screens, 60 cell lines, were utilized to determine the cytotoxic effect of small molecules, natural products, and other drug candidates. […]
# The five dose screen was performed by creating four 10-fold dilutions of the highest concentration of the diluted 7-acetoxyroyleanone made in the same manner as the one dose screen. […] The bound stain was then dissolved in 10 mM trizma base and the absorbance was read using an automated plate reader at 515 nm. […]
structure (smiles),measurement,setting,value
CC(=O)O[C@@H]1C[C@H]2C(C)(C)CCC[C@]2(C)C2=C1C(=O)C(C(C)C)=C(O)C2=O [7-acetoxyroyleanone],"growth percent, average for all cell types screened",,−18.5%
same,growth inhibition of each cell line compared to the control,minimum over all cell lines,at least 72.88%
